Laboratory results: patent US10067143B2, “Ubiquitination assay” (ITI Scotland Limited, priority 2010, dated 2018)

Test system: T1, SCF^Skp2/Cks1
T1 construct: 6His-Skp2-(isoform 1, hu,FL),; GST-Skp1-(hu,FL), 6His-Cul1-; (hu,FL), UT-Rbx1-(hu,FL); 6His-Cks1-(hu,FL); 6His (N); GST (N); made in house
Experiment: 'Live' SCF^Skp2/Cks1 (E3) p27 ubiquitination assay, ECL
Assay type: biochemical, human
Settings: for shows up as inhibitor in R140 kinase inhibitor panel / IC50, E3 (SCF^Skp2/Cks1) assay ECL: 60 minute incubation; for shows up as inhibitor in R140 kinase inhibitor panel / inhibition in E3 assay, panel of 41 inhibitors: final E3 assay conditions; for IC50, E3 (SCF^Skp2/Cks1) assay ECL: 25 nM c-Myc p27, 5 nM E1, 1 μM E2, 25 nM E3 tetramer, 25 nM Cks1, 2 μM Ub, 100 μM ATP; for inhibition in E3 assay, panel of 41 inhibitors: R140 kinase inhibitor panel + PYR-41
Experimental: FIG. 30 (a): ‘Live’ SCF^Skp2/Cks1 Assay—ECL Inhibitor study—PYR-41 (E1 inhibitor).
FIG. 32: ‘Live’ SCF^Skp2/Cks1 Assay—ECL R140 Kinase inhibit or panel. Used 60 minute incubation; 25 nM c-Myc p27; anti-c-Myc capture for p27 (Millipore 05-274, 1/500); 5 nM E1; 1 μM E2 (HA); 25 nM E3 tetramer; 25 nM Cks1; 2 μM Ub; 100 μM ATP; streptavidin sulfo tag (MSD, R32AD-1, 1 μg/ml).
FIG. 34: ‘Live’ SCF^Skp2/Cks1 Assay—ECL follow up IC50s. Used 60 minute incubation; 25 nM c-Myc p27; anti c-Myc capture for p27 (Millipore 05-274, 1/500); 5 nM E1; 1 μM E2 (HA); 25 nM E3 tetramer; 25 nM Cks1; 2 μM Ub; 100 μM ATP; streptavidin sulfo tag (MSD, R32AD-1, 1 μg/ml). Titration of PYR41 (Calbiochem 662105) from 300 μM to 10 nM (control). Titration of Rottlerin, EGCG, AG538 and K252c from 300 μM to 10 nM.
Each of the assays in the p27 ubiquitination cascade (E1, E2 and E3) were tested against the E1 inhibitor PYR-41. No pre-charging of either the E1 or E2 was carried out prior to the introduction of the compound although in the E3 assay, p27 phosphorylation by CDK2/Cyclin E was carried out in the absence of inhibitor.
In order to test the feasibility of screening the E3 assay against a range of inhibitors, the assay was tested against a panel of 41 inhibitors (40 known kinase inhibitors and PYR-41) (FIG. 31). […] Using the same assay conditions, the E3 assay was tested against these inhibitors (FIG. 33).

T1 sequence (Q13309 whole entry, canonical isoform): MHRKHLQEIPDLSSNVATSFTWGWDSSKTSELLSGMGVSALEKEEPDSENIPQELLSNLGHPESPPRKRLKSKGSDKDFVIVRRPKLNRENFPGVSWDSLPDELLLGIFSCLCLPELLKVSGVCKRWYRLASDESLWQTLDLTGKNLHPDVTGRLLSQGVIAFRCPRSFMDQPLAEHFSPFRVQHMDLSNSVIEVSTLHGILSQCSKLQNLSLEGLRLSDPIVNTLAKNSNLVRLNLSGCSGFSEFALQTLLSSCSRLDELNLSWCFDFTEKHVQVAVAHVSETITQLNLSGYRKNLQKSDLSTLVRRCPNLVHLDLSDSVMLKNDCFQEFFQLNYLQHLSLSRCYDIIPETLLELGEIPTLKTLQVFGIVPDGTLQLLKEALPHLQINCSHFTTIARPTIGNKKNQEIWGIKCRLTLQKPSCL
T1 sequence (P63208 1-160 isoform P63208-2, further chain): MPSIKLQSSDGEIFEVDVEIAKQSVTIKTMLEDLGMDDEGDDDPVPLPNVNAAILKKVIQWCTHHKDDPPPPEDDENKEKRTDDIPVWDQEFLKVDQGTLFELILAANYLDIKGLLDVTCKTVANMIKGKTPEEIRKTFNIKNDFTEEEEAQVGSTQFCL
T1 sequence (Q13616 whole entry, further chain, canonical isoform): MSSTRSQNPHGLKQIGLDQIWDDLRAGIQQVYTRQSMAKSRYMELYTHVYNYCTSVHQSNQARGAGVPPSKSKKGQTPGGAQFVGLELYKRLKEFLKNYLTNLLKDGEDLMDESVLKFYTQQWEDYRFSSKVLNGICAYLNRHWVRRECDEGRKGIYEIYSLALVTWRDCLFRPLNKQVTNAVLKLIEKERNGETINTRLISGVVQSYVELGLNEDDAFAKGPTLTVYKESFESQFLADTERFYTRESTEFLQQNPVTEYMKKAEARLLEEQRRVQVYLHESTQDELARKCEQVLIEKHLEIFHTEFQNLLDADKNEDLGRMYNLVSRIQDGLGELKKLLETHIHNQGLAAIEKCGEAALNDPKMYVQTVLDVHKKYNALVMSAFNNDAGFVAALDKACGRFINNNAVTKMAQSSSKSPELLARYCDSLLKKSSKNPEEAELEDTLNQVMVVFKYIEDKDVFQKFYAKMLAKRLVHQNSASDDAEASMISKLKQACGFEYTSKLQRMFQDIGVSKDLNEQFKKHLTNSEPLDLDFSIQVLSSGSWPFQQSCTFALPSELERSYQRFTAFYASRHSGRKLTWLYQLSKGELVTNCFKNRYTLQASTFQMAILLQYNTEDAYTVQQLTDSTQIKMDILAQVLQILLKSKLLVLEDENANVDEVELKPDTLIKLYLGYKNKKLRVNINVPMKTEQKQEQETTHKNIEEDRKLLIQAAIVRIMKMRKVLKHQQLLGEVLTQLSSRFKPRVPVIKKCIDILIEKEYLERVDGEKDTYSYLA
T1 sequence (P62877 whole entry, further chain, canonical isoform): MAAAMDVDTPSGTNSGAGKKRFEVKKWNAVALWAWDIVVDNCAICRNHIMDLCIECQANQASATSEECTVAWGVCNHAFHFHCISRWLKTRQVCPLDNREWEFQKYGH
T1 sequence (P61024 whole entry, further chain, canonical isoform): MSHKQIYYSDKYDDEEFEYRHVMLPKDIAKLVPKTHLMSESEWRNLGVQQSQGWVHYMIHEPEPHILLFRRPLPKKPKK

Row | Compound | shows up as inhibitor in R140 kinase inhibitor panel | IC50, E3 (SCF^Skp2/Cks1) assay ECL | inhibition in E3 assay, panel of 41 inhibitors
1 | N#C/C(=C\c1ccc(O)c(O)c1)C(=O)c1ccc(O)c(O)c1 [AG538] | show up as inhibitors |  | 
2 | O=C(O[C@@H]1Cc2c(O)cc(O)cc2O[C@@H]1c1cc(O)c(O)c(O)c1)c1cc(O)c(O)c(O)c1 [EGCG] | show up as inhibitors | in the μM range | moderate amounts of inhibition
3 | O=C1NCc2c1c1c3ccccc3[nH]c1c1[nH]c3ccccc3c21 [K252c] | show up as inhibitors | false positive | moderate amounts of inhibition
4 | CCOC(=O)c1ccc(N2NC(=O)/C(=C/c3ccc([N+](=O)[O-])o3)C2=O)cc1 [PYR-41] |  |  | > 80%
5 | CC(=O)c1c(O)c(C)c(O)c(Cc2c(O)c3c(c(C(=O)/C=C/c4ccccc4)c2O)OC(C)(C)C=C3)c1O [Rottlerin] | show up as inhibitors | in the μM range | moderate amounts of inhibition
